From patent US20230000870A1, “METHODS OF TREATING CANCER IN BIOMARKER-IDENTIFIED PATIENTS WITH INHIBITORS OF CYCLIN-DEPENDENT KINASE 7 (CDK7)” (Syros Pharmaceuticals, Inc., priority 2019, published 2023)

Key:
[1] = target: CDK2/Cyclin E1 complex (Homo sapiens, UniProt P24941); assay: CDK2 kinase inhibition assay (Caliper/LabChip EZ Reader); assay type: biochemical; settings: CDK2/Cyclin E1 0.5 nM, ATP 2 mM, 35 min at 27° C.
Outline: (§1)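 Caliper/LabChip mobility-shift kinase assays at 27° C. CDK9/Cyclin T1 8 nM with 2 μM 5-FAM-CDK9tide, 10 mM MgCl2, 15 min; CDK12/Cyclin K 50 nM with 5-FAM-CDK9tide 2 μM, 2 mM MgCl2, 3 hr; CDK2/Cyclin E1 0.5 nM with 5-FAM-CDK7tide 2 μM, 2 mM MgCl2, 35 min; CDK7 35 min.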

[2] = target: CDK7/Cyclin H/MAT1 complex (Homo sapiens, UniProt P50613); assay: CDK7 kinase inhibition assay (Caliper/LabChip EZ Reader); assay type: biochemical; settings: CDK7/Cyclin H/MAT1 6 nM, ATP 2 mM, 35 min at 27° C.
Chain of CDK7/Cyclin H/MAT1 complex (P50613 whole entry): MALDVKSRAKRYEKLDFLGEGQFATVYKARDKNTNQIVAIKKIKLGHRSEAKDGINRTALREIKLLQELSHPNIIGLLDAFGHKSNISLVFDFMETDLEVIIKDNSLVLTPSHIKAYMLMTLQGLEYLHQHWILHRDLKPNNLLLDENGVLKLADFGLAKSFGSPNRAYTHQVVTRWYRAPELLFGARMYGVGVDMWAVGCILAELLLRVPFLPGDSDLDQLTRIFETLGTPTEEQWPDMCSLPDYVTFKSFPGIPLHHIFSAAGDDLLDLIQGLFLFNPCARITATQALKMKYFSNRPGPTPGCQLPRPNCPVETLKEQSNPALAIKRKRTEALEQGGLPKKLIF
Chain of CDK7/Cyclin H/MAT1 complex (P51946 whole entry partner): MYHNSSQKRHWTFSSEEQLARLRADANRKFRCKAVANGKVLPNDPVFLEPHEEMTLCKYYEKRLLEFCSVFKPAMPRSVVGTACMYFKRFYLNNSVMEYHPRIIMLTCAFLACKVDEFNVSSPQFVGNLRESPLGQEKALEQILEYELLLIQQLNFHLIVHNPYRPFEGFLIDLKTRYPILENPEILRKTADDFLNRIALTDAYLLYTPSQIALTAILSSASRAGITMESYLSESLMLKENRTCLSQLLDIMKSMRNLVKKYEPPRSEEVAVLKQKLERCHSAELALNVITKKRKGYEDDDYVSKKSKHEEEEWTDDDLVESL
Chain of CDK7/Cyclin H/MAT1 complex (P51948 whole entry partner): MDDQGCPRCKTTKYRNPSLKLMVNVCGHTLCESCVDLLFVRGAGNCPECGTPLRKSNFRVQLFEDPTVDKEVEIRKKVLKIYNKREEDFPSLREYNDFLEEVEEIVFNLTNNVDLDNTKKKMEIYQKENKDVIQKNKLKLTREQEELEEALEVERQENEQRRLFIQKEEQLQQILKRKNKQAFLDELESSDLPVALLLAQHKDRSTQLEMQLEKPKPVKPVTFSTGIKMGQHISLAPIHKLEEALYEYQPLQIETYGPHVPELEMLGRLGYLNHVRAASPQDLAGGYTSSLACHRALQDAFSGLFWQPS
Outline: as §1

[3] = target: CDK9/Cyclin T1 complex (Homo sapiens, UniProt P50750); assay: CDK9 kinase inhibition assay (Caliper/LabChip EZ Reader); assay type: biochemical; settings: CDK9/Cyclin T1 8 nM, ATP 2 mM, 15 min at 27° C.
Chain of CDK9/Cyclin T1 complex (P50750 whole entry): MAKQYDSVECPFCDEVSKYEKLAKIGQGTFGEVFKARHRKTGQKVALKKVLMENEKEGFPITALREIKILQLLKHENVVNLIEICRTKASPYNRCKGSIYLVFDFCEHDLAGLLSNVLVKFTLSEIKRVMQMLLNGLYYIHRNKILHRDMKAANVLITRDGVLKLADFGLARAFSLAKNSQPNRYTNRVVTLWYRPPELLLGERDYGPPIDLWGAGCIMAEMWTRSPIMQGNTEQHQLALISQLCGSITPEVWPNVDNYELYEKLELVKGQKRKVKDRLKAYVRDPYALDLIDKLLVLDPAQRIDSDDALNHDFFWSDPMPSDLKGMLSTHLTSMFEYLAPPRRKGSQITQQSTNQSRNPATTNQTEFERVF
Chain of CDK9/Cyclin T1 complex (O60563 whole entry partner): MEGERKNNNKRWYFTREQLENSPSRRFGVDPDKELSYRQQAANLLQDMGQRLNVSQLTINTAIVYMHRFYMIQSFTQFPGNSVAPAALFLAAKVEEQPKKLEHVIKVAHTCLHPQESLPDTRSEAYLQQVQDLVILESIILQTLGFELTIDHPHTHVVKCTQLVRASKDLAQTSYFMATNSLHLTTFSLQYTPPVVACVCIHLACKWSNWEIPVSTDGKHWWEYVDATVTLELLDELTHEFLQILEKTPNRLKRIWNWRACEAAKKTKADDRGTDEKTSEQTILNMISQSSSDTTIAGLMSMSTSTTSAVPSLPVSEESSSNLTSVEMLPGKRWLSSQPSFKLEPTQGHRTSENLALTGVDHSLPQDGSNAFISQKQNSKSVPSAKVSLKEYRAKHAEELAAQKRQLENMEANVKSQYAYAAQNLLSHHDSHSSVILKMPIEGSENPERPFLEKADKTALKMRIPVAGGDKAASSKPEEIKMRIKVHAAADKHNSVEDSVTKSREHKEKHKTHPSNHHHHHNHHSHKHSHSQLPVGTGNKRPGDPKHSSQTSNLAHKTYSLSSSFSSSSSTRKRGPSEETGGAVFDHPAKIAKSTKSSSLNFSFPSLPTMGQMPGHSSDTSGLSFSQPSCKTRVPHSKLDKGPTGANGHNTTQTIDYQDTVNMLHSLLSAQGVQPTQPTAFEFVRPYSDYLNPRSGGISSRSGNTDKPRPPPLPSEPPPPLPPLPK
Outline: as §1

[4] = target: T1, CDK12 (aa686-1082)/Cyclin K complex (Homo sapiens, UniProt Q9NYV4); assay: CDK12 kinase inhibition assay (Caliper/LabChip EZ Reader); assay type: biochemical; settings: CDK12 (aa686-1082)/Cyclin K 50 nM, ATP 2 mM, 3 hr at 27° C.
T1 construct: CDK12 (aa686-1082)/Cyclin K complex
T1 sequence (Q9NYV4 686-1082): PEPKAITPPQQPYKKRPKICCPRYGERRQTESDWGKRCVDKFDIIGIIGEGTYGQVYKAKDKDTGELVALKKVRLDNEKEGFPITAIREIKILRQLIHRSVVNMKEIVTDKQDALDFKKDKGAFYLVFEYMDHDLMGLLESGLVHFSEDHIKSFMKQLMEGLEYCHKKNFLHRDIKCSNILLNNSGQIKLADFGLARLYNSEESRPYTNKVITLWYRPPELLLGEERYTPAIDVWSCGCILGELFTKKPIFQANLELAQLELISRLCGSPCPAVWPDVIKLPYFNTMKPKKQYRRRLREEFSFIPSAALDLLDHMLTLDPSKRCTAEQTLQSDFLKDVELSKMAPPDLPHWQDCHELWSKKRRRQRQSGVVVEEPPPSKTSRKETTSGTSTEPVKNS
T1 sequence (O75909 whole entry partner, the tested form may be a part): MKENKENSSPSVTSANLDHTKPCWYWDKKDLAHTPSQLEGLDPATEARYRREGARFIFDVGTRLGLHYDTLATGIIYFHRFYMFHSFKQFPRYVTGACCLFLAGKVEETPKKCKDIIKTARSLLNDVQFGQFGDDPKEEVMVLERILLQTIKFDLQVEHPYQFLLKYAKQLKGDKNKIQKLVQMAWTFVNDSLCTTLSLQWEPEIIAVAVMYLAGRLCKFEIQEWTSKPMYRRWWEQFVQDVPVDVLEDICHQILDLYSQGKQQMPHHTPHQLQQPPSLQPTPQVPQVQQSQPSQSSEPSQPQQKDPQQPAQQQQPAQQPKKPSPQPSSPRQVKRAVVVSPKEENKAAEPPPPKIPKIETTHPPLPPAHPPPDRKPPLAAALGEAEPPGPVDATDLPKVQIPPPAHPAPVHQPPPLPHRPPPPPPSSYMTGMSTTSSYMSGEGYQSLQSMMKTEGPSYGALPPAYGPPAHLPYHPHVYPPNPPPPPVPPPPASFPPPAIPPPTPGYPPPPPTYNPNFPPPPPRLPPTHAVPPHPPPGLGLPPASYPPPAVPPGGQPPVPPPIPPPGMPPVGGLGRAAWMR
Outline: as §1

[5] = test system: A673 cells; assay: Inhibition of proliferation of A673 cells (CyQUANT, 72 hour); assay type: cell-based, human; settings: read-out: Inhibition of Proliferation of A673 Cells (calculated IC50)
Outline: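 Human Ewing's sarcoma A673 cells in DMEM + 10% FBS + 1 mM sodium pyruvate, 37 °C, 5% CO2. Compounds in 0.5-log serial dilutions, stated range 4 μM to […], for 72 h. Anti-proliferative effect read with CyQUANT per kit directions.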

[6] = test system: HCC70 cells; assay: Inhibition of proliferation of HCC70 cells (CyQUANT Direct, 72 hour); assay type: cell-based, human; settings: read-out: Inhibition of Proliferation of HCC70 Cells (calculated IC50)
Method: HCC70 cells: HCC70 cells are a cell line derived from human triple negative breast cancer. Representative compounds of the invention were tested at different concentrations (from 4 μM to […]; 0.5 log serial dilutions) for their ability to inhibit the proliferation of HCC70 cells. Known CDK inhibitors dinaciclib or N-((1S,3R)-3-((5-chloro-4-(1H-indol-3-yl) pyrimidin-2-yl)amino)cyclohexyl)-5-((E)-4-(dimethylamino)but-2-enamido)picolinamide and triptolide were used as positive controls. Cells were grown in ATCC-formulated RPMI-1640 Medium (ATCC 30-2001)+10% FBS. The cells were cultured at 37° C. in a humidified chamber in the presence of 5% CO2. Proliferation assays were conducted over a 72 hour time period. CyQUANT® Direct Cell Proliferation Assay (Life Technologies, Chicago, Ill. USA) was used to assess the anti-proliferative effects of the compounds following manufacturer's directions and utilizing the reagents supplied with the CyQUANT® Direct Cell kit.

| IC50 [1] | IC50 [2] | IC50 [3] | IC50 [4] | Structure (SMILES) | IC50 [5] | IC50 [6] |
| --- | --- | --- | --- | --- | --- | --- |
| 0.2 to 5 µM | < 20 nM | 0.2 to 5 µM | 200 to 5000 nM | CCc1cnc(NC2CCCNC2)nc1-c1c[nH]c2c(F)cccc12 (stereo not drawn) [Compound 144] | 20 to 200 nM | 100 to 1000 nM |
| ≥ 5 µM | < 20 nM | ≥ 5 µM | ≥ 5000 nM | CCc1cnc(NC2CCCNC2)nc1-c1c[nH]c2nc(C#N)ccc12 (stereo not drawn) [Compound 287] | 20 to 200 nM | 100 to 1000 nM |
| 0.2 to 5 µM | 20 to 200 nM | 0.2 to 5 µM | 20 to 200 nM | Clc1cnc(NC2CCCNC2)nc1-c1cnn2ccccc12 (stereo not drawn) [Compound 104] | 20 to 200 nM | 100 to 1000 nM |
| 0.02 to 0.2 µM | < 20 nM | 0.2 to 5 µM | 200 to 5000 nM | Fc1cnc2[nH]cc(-c3nc(NC4CCCNC4)ncc3C(F)(F)F)c2c1 (stereo not drawn) [Compound 166] | < 20 nM | < 100 nM |
| 0.2 to 5 µM | < 20 nM | 0.2 to 5 µM | 200 to 5000 nM | CNC(=O)c1cccc2c(-c3nc(N[C@H]4CCCNC4)ncc3C(F)(F)F)c[nH]c12 [Compound 173] | 20 to 200 nM | 100 to 1000 nM |
| 0.2 to 5 µM | < 20 nM | 0.2 to 5 µM | 20 to 200 nM | FC(F)(F)c1cnc(NC2CCCNC2)nc1-c1c[nH]c2c(-c3cn[nH]c3)cccc12 (stereo not drawn) [Compound 170] | < 20 nM | < 100 nM |
| 0.2 to 5 µM | 20 to 200 nM | 0.2 to 5 µM | 200 to 5000 nM | FC(F)n1cc(-c2ccc3c(-c4nc(NC5CCCNC5)ncc4C(F)(F)F)c[nH]c3c2)cn1 (stereo not drawn) [Compound 290] | 20 to 200 nM | 100 to 1000 nM |
| 0.2 to 5 µM | < 20 nM | 0.2 to 5 µM | 200 to 5000 nM | FC(F)(F)c1cnc(NC2CCCNC2)nc1-c1c[nH]c2cc(-c3cc[nH]n3)ccc12 (stereo not drawn) [Compound 291] | 20 to 200 nM | 100 to 1000 nM |
| 0.2 to 5 µM | < 20 nM | 0.2 to 5 µM | 200 to 5000 nM | CN1CCN(c2cccc3c(-c4nc(NC5CCCNC5)ncc4C(F)(F)F)c[nH]c23)C1=O (stereo not drawn) [Compound 176] | < 20 nM | 100 to 1000 nM |
| 0.2 to 5 µM | < 20 nM | 0.2 to 5 µM | 200 to 5000 nM | CS(=O)(=O)c1ccc2c(-c3nc(NC4CCCNC4)ncc3C(F)(F)F)c[nH]c2c1 (stereo not drawn) [Compound 199] | < 20 nM | 100 to 1000 nM |
| 0.2 to 5 µM | < 20 nM | 0.02 to 0.2 µM | 200 to 5000 nM | Cc1[nH]ncc1-c1cccc2c(-c3nc(N[C@@H]4CCCNC4)ncc3C(F)(F)F)c[nH]c12 [Compound 175] | < 20 nM | 1000 to 5000 nM |
| 0.02 to 0.2 µM | 20 to 200 nM | 0.2 to 5 µM | 200 to 5000 nM | O=C1CCC(Nc2ncc(Cl)c(-c3c[nH]c4ccccc34)n2)CN1 (stereo not drawn) [Compound 159] | 200 to 5000 nM | 1000 to 5000 nM |
| 0.2 to 5 µM | 20 to 200 nM | 0.2 to 5 µM | 200 to 5000 nM | N#Cc1ccc2c(-c3nc(N[C@@H]4CCCNC4)ncc3C(F)(F)F)c[nH]c2c1-c1ccnnc1 [Compound 261] | < 20 nM | < 100 nM |
| 0.2 to 5 µM | 20 to 200 nM | 0.2 to 5 µM | 20 to 200 nM | Fc1cccc2c(-c3nc(NC4CCCNC4)ncc3Cl)c[nH]c12 (stereo not drawn) [Compound 107] | < 20 nM | 100 to 1000 nM |
| ≥ 5 µM | 20 to 200 nM | ≥ 5 µM | ≥ 5000 nM | Cn1cc(-c2nc(NC3CCCNC3)ncc2C(F)(F)F)c2cccc(C#N)c21 (stereo not drawn) [Compound 279] | 200 to 5000 nM | 1000 to 5000 nM |
| 0.2 to 5 µM | < 20 nM | 0.2 to 5 µM | 200 to 5000 nM | CCN1CCCC(Nc2ncc(C(F)(F)F)c(-c3c[nH]c4cc(C#N)ccc34)n2)C1 (stereo not drawn) [Compound 284] | 20 to 200 nM | 100 to 1000 nM |
| 0.2 to 5 µM | < 20 nM | 0.2 to 5 µM | 200 to 5000 nM | FC(F)(F)c1cnc(NC2CCCNC2)nc1-c1c[nH]c2cnc(Cl)cc12 (stereo not drawn) [Compound 165] | 20 to 200 nM | 100 to 1000 nM |

| IC50 [1] | IC50 [2] | IC50 [3] | IC50 [4] | Structure (SMILES) | IC50 [5] | IC50 [6] |
| --- | --- | --- | --- | --- | --- | --- |
| 0.2 to 5 µM | < 20 nM | 0.2 to 5 µM | 20 to 200 nM | Clc1cnc(NC2CCCNC2)nc1-c1c[nH]c2ncccc12 (stereo not drawn) [Compound 118] | 20 to 200 nM | < 100 nM |
| 0.2 to 5 µM | < 20 nM | ≥ 5 µM | 200 to 5000 nM | O=C(c1ccc2c(-c3nc(N[C@H]4CCCNC4)ncc3C(F)(F)F)c[nH]c2c1)N1CC[C@@H](O)C1 [Compound 250] | 200 to 5000 nM | 1000 to 5000 nM |
|  |  |  |  | Cn1cc(-c2nc(NC3CCCNC3)ncc2C(F)(F)F)c2ccc(C#N)nc21 (stereo not drawn) [Compound 273] | 200 to 5000 nM | 1000 to 5000 nM |
| ≥ 5 µM | 20 to 200 nM | ≥ 5 µM | ≥ 5000 nM | N#Cc1ccc2c(-c3nc(NC4CCCNC4)ncc3OC(F)F)c[nH]c2c1 (stereo not drawn) [Compound 301] |  | 1000 to 5000 nM |
| ≥ 5 µM | 20 to 200 nM | ≥ 5 µM | 200 to 5000 nM | CS(=O)(=O)c1ccc2c(-c3nc(NC4CCCN(C5CC5)C4)ncc3C(F)(F)F)c[nH]c2c1 (stereo not drawn) [Compound 381] |  | 1000 to 5000 nM |
| ≥ 5 µM | 20 to 200 nM | ≥ 5 µM | 200 to 5000 nM | N#Cc1ccc2c(-c3nc(NC4CNCCC4O)ncc3C(F)(F)F)c[nH]c2c1 (stereo not drawn) [Compound 355] |  | 100 to 1000 nM |
| ≥ 5 µM | ≥ 5000 nM | ≥ 5 µM | ≥ 5000 nM | CC(C)(C)OC(=O)N1CCC[C@H](Nc2ncc(C(F)(F)F)c(-c3c[nH]c4cc(P(C)(C)=O)ccc34)n2)C1 [Compound 352] |  | 1000 to 5000 nM |
| 0.2 to 5 µM | < 20 nM | 0.2 to 5 µM | 200 to 5000 nM | Cc1ccncc1-c1ccc2c(-c3nc(NC4CCCNC4)ncc3C(F)(F)F)c[nH]c2c1 (stereo not drawn) [Compound 336] |  | < 100 nM |
| 0.2 to 5 µM | < 20 nM | 0.2 to 5 µM | 200 to 5000 nM | FC(F)(F)c1cnc(N[C@H]2CCCNC2)nc1-c1c[nH]c2cc(-c3nccs3)ccc12 [Compound 332] |  | < 100 nM |
| 0.2 to 5 µM | < 20 nM | 0.2 to 5 µM | 200 to 5000 nM | Cn1ccc(-c2ccc3c(-c4nc(NC5CCCNC5)ncc4C(F)(F)F)c[nH]c3c2)n1 (stereo not drawn) [Compound 303] |  | 100 to 1000 nM |
| ≥ 5 µM | 20 to 200 nM | ≥ 5 µM | ≥ 5000 nM | CCN1CC(Nc2ncc(C(F)(F)F)c(-c3c[nH]c4cc(S(C)(=O)=O)ccc34)n2)CC(C)(C)C1 (stereo not drawn) [Compound 369] |  | 100 to 1000 nM |
| ≥ 5 µM | 20 to 200 nM | ≥ 5 µM | 200 to 5000 nM | N#Cc1ccc2c(-c3nc(N[C@@H]4CNC[C@H](O)C4)ncc3C(F)(F)F)c[nH]c2c1 [Compound 370] |  | 100 to 1000 nM |
| ≥ 5 µM | < 20 nM | ≥ 5 µM | 200 to 5000 nM | O=c1[nH]cc(-c2ccc3c(-c4nc(NC5CCCNC5)ncc4C(F)(F)F)c[nH]c3c2)c(=O)[nH]1 (stereo not drawn) [Compound 333] |  | 1000 to 5000 nM |
| ≥ 5 µM | 20 to 200 nM | ≥ 5 µM | 200 to 5000 nM | FC(F)(F)c1cnc(NC2CCCNC2)nc1-c1c[nH]c2cc(-c3ccnc4ccccc34)ccc12 (stereo not drawn) [Compound 339] |  | 1000 to 5000 nM |
| 0.2 to 5 µM | < 20 nM | 0.2 to 5 µM | 200 to 5000 nM | CS(=O)(=O)c1c(C#N)ccc2c(-c3nc(NC4CCCNC4)ncc3Cl)c[nH]c12 (stereo not drawn) [Compound 294] |  | < 100 nM |
| ≥ 5 µM | 20 to 200 nM | ≥ 5 µM | ≥ 5000 nM | O=S1(=O)CCn2cc(-c3nc(N[C@H]4CCCNC4)ncc3C(F)(F)F)c3cccc1c32 [Compound 348] |  | 100 to 1000 nM |
| ≥ 5 µM | 20 to 200 nM | ≥ 5 µM | ≥ 5000 nM | CCP(=O)(CC)c1ccc2c(-c3nc(NC4CCCNC4)ncc3C(F)(F)F)c[nH]c2c1 (stereo not drawn) [Compound 379] |  | 1000 to 5000 nM |
